Assay results: patent US9999690B2, “Labeled compounds and methods of imaging, diagnosing cartilage disorders and diseases, and monitoring cartilage health using labeled and unlabeled compounds” (Perosphere Inc., priority 2013, dated 2018)

Assay: physchem
Details: water

- solubility: > 100 mg/mL
Structure (SMILES): N=C(N)NCCCC(N)C(=O)NCCCN1CCN(CCCNC(=O)C(N)CCCNC(=N)N)CC1 (stereo not shown) [formula V, 2-Amino-5-guanidino-pentanoic acid (3-{4-[3-(2-amino-5-guanidino-pentanoylamino)-propyl]-piperazin-1-yl}-propyl)-amide]
